Reference: US20110105380A1, “Protection of Nano-Scale Particles from Immune Cell Uptake” (THE TRUSTEES OF THE UNIVERSITY OF PENNSYLVANIA, priority 2009, published 2011)

System: THP-1 macrophages
Test: Phagocytosis of IgG-opsonized sheep RBCs by THP-1 macrophages
Type: cell-based, human
Procedure: FIG. 5, comprising FIGS. 5A-5D, illustrates human macrophages and monocytes inhibited by human-CD47. FIG. 5A depicts DIC images of THP-1 phagocytes plus CD47-blocked, IgG-opsonized human-RBC, using F(ab′)2 made from monoclonal B6H12. The scale bars are […]. FIG. 5B depicts human peripheral blood monocyte plus CD47-blocked human-RBC following lysis after 45 min of phagocytosis: PKH26 labeled human RBC are depicted in the right hand panel: Lysed RBC labeled with FITC-anti-Fc indicates the cell is not internalized. Human-RBC and Sheep-RBC were phagocytosed by THP-1 cells in FIG. 5C, or human monocytes in FIG. 5D, depicting phagocytosis increases with opsonization. Inset depicts blebbistatin treatment of ShRBC showing decrease in phagocytosis. Phagocytosis is measured as the ratio of internalized RBCs per phagocyte with 200 phagocytes counted in triplicate experiments (±SEM).
FIG. 7 illustrates that myosin increases the efficiency of phagocytosis. Phagocytosis of IgG-opsonized sheep-RBC were measured as a ratio of internalized RBCs per phagocyte with 200 phagocytes counted in triplicate experiments (±SEM). The level of NMM IIA activity is normalized to WT levels in THP-1, with relative levels of knockdown or overexpression quantified by immunofluorescence and Western blot. Results for phagocytosis of the IgG-opsonized sheep-RBC were fit to a line; where the intercept approximates the result for human-RBC. The inset bar graph depicts blebbistatin inhibition of ShRBC phagocytosis by GFP-NMMIIA expressing WT THP-1.
Phagocytosis by the human-derived THP-1 macrophages of IgG-opsonized RBCs was studied by imaging in DIC microscopy. […] RBC membranes were prelabeled with PKH26, and non-engulfed RBCs were labeled with a fluorescein-labeled antibody against the Fc of the IgG-opsonin. […] A small number of human RBCs were engulfed for either type of phagocyte. […]
In light of the myosin differences seen by fluorescence at the various synapses (FIGS. 2-4), the effect of blebbistatin-inhibited myosin on phagocytosis was studied. […]

Ki (engulfment of sheep RBCs by THP-1 macrophages, dose-response (not shown), read-out: Ki-blebb for blebbistatin inhibition of phagocytosis): 5 µM
Structure (SMILES): Cc1ccc2c(c1)C(=O)C1(O)CCN(c3ccccc3)C1=N2 (stereo not drawn) [blebbistatin]
inhibition of ShRBC phagocytosis by GFP-NMM IIA expressing THP-1 (5 μM blebbistatin): ~50%
engulfment of sheep RBCs by THP-1 macrophages (blebbistatin treatment, FIG. 5C): inhibited by blebbistatin to an extent similar to that of CD47 on human RBCs
